Tests used:
Assay in all cases: KINOMEscan competition binding
Conditions in all cases: compound 10.0 µM
[1] = molecular target: AAK1 (human) (UniProt Q2M2I8)
[2] = molecular target: ACVR1 (human) (UniProt Q04771)
[3] = molecular target: AKT2 (human) (UniProt P31751)
[4] = molecular target: AKT3 (human) (UniProt Q9Y243)
[5] = molecular target: AURKC (human) (UniProt Q9UQB9)
[6] = molecular target: BMPR1B (human) (UniProt O00238)
[7] = molecular target: CAMK2A (human) (UniProt Q9UQM7)
[8] = molecular target: CAMKK2 (human) (UniProt Q96RR4)
[9] = molecular target: CDK15 (human) (UniProt Q96Q40)
[10] = molecular target: CDK19 (human) (UniProt Q9BWU1)
[11] = molecular target: CLK2 (human) (UniProt P49760)
Chain of CLK2 (human) (P49760 whole entry, looked up): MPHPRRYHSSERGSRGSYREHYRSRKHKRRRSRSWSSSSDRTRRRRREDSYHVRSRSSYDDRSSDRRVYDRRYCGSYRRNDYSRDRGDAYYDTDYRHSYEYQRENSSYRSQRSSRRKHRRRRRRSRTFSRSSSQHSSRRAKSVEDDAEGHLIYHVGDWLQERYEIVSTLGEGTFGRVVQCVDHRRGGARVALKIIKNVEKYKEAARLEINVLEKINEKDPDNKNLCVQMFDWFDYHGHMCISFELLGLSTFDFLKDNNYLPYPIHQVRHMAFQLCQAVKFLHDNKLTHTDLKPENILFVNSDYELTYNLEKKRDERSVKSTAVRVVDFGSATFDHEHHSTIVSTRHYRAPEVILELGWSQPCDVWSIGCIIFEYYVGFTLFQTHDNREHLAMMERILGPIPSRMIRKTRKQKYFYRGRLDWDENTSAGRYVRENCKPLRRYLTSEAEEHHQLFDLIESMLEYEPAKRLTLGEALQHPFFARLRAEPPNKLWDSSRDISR

[12] = molecular target: CSNK1G2 (human) (UniProt P78368)
Chain of CSNK1G2 (human) (P78368 whole entry, looked up): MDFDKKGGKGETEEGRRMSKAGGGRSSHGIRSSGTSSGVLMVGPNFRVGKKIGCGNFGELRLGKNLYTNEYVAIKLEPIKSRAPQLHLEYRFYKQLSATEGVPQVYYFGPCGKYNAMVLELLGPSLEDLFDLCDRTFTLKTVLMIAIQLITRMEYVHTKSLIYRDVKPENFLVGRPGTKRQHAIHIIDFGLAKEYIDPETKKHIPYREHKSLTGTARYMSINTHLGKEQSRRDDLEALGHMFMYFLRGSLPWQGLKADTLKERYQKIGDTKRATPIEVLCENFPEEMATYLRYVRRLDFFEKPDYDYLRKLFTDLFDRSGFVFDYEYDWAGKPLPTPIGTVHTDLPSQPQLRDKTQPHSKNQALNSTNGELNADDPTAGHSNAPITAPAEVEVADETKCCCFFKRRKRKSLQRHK

[13] = molecular target: EPHA6 (human) (UniProt Q9UF33)
[14] = molecular target: EPHB4 (human) (UniProt P54760)
[15] = molecular target: FES (human) (UniProt P07332)
[16] = molecular target: FGFR4 (human) (UniProt P22455)
Chain of FGFR4 (human) (P22455 whole entry, looked up): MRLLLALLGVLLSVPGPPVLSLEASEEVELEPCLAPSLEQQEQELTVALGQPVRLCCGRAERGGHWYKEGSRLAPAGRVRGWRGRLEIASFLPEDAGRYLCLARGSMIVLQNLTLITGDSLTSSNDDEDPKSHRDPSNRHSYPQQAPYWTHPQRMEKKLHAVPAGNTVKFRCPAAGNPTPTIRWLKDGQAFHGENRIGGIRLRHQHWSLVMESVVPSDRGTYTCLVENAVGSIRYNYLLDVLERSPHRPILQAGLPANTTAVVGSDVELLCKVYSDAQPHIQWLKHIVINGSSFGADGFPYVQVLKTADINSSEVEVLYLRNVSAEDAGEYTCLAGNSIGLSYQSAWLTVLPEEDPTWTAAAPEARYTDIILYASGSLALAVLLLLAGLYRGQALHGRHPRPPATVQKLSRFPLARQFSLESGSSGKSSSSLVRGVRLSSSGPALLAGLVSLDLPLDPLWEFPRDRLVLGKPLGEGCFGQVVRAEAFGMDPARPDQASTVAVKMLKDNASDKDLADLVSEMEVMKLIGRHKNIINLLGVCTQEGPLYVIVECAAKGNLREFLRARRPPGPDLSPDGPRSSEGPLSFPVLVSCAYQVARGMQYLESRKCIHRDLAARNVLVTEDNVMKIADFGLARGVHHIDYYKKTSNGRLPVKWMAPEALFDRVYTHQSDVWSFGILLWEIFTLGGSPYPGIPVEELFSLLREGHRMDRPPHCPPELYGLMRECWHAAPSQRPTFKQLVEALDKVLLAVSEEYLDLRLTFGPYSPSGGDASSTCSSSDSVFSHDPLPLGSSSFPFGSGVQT

[17] = molecular target: GSK3A (human) (UniProt P49840)
Chain of GSK3A (human) (P49840 whole entry, looked up): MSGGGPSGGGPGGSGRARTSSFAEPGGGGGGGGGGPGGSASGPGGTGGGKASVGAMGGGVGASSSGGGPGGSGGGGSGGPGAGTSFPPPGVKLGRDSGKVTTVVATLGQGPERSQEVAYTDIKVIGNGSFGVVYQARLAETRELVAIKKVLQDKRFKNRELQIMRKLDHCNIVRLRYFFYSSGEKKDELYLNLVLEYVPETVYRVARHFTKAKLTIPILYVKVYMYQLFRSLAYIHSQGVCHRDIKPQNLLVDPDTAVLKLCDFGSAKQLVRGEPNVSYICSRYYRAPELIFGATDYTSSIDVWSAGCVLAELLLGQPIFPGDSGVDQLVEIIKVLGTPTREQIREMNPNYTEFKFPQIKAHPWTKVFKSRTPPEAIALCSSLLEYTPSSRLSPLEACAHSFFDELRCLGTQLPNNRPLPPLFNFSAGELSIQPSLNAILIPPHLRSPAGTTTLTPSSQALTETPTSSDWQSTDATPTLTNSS

[18] = molecular target: IKBKB (human) (UniProt O14920)
Chain of IKBKB (human) (O14920 whole entry, looked up): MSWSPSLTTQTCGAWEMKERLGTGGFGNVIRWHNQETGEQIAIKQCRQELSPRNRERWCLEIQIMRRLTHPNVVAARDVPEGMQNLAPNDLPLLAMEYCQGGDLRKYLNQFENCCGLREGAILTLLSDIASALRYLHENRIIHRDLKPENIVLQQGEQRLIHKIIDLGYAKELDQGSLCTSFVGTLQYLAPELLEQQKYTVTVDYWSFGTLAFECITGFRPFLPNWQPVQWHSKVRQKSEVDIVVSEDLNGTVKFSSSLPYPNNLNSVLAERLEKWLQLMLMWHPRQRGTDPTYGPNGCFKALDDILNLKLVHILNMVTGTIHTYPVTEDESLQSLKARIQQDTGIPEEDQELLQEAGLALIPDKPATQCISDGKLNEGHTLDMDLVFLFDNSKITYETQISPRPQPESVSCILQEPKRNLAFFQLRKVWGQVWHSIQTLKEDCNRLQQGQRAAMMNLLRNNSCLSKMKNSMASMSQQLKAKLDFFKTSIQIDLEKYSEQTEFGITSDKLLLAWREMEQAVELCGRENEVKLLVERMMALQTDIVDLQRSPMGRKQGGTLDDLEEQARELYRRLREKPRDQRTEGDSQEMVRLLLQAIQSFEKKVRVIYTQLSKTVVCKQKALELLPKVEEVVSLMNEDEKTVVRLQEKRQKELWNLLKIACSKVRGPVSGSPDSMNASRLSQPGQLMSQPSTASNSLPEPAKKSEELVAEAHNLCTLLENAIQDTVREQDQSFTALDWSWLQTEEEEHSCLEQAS

[19] = molecular target: LCK (human) (UniProt P06239)
[20] = molecular target: MAP3K7 (human) (UniProt O43318)
Chain of MAP3K7 (human) (O43318 whole entry, looked up): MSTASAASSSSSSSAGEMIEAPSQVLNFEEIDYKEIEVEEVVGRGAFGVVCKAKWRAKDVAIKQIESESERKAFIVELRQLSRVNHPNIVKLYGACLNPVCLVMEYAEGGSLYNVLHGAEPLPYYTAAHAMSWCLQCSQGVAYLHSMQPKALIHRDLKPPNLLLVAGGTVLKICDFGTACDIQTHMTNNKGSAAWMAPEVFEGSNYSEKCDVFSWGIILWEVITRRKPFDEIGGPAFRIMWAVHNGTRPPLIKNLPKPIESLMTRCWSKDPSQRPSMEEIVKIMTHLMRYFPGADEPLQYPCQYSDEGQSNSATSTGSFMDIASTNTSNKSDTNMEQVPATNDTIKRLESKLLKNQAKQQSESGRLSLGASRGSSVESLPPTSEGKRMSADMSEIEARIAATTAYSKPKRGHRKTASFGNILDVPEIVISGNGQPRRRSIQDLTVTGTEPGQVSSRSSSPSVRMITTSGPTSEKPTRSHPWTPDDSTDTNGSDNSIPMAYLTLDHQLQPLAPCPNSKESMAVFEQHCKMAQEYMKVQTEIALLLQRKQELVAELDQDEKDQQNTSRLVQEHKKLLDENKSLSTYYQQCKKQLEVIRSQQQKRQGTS

[21] = molecular target: MAP3K9 (human) (UniProt P80192)
[22] = molecular target: MAPK10 (human) (UniProt P53779)
Chain of MAPK10 (human) (P53779 whole entry, looked up): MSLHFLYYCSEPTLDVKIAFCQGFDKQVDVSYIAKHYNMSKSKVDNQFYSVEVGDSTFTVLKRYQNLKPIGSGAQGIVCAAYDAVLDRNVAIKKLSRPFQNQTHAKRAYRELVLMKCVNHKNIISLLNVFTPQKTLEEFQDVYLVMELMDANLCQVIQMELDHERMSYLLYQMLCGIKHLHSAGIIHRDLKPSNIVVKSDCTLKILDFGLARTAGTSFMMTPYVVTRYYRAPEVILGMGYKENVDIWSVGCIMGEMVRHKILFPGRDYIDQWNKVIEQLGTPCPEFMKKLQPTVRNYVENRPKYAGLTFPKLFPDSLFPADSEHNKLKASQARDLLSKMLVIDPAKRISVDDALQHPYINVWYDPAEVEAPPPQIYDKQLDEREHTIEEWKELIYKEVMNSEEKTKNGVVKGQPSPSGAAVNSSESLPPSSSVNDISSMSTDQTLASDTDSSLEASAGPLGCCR

[23] = molecular target: MERTK (human) (UniProt Q12866)
[24] = molecular target: MYLK4 (human) (UniProt Q86YV6)
Chain of MYLK4 (human) (Q86YV6 whole entry, looked up): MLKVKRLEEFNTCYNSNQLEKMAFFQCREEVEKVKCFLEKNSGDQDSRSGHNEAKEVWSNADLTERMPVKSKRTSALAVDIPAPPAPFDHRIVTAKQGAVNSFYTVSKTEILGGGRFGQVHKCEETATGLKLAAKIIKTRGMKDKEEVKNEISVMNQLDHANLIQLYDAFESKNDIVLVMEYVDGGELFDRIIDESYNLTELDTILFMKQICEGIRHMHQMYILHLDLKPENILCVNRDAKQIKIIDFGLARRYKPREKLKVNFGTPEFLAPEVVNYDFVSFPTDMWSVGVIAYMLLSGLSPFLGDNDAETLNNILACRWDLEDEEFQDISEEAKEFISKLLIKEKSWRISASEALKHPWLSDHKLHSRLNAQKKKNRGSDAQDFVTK

[25] = molecular target: MYO3A (human) (UniProt Q8NEV4)
[26] = molecular target: NEK2 (human) (UniProt P51955)
[27] = molecular target: NLK (human) (UniProt Q9UBE8)
[28] = molecular target: NUAK2 (human) (UniProt Q9H093)
[29] = molecular target: PIM3 (human) (UniProt Q86V86)
[30] = molecular target: PIP5K1A (human) (UniProt Q99755)
[31] = molecular target: PKMYT1 (human) (UniProt Q99640)
Chain of PKMYT1 (human) (Q99640 whole entry, looked up): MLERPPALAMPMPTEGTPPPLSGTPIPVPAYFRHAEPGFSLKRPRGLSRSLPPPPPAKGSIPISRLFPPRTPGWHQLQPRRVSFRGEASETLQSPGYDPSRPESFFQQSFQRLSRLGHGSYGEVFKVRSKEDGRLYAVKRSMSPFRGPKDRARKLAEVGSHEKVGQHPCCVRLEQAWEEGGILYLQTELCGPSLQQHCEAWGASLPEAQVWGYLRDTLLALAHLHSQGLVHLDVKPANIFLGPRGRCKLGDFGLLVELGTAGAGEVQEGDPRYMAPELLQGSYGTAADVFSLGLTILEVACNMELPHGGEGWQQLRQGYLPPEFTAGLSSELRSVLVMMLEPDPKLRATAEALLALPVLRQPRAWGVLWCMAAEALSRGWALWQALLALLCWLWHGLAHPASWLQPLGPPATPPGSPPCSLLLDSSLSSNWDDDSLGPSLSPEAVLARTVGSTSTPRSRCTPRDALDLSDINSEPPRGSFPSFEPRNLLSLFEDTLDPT

[32] = molecular target: PTK2 (human) (UniProt Q05397)
[33] = molecular target: RPS6KA2 KD1 (human) (UniProt Q15349)
[34] = molecular target: SIK1 (human) (UniProt P57059)
[35] = molecular target: STK24 (human) (UniProt Q9Y6E0)
[36] = molecular target: STK32C (human) (UniProt Q86UX6)
[37] = molecular target: STK35 (human) (UniProt Q8TDR2)
[38] = molecular target: STK4 (human) (UniProt Q13043)
[39] = molecular target: TAOK3 (human) (UniProt Q9H2K8)
[40] = molecular target: TGFBR1 (human) (UniProt P36897)

## Cc1ccc(NC(=O)c2cccc(C(C)(C)C#N)c2)cc1Nc1ccc2ncn(C)c(=O)c2c1
[1]
  kinase still bound, per cent of control: 100%
[2]
  kinase still bound, per cent of control: 100%
[3]
  kinase still bound, per cent of control: 100%
[4]
  kinase still bound, per cent of control: 100%
[5]
  kinase still bound, per cent of control: 100%
[6]
  kinase still bound, per cent of control: 82%
[7]
  kinase still bound, per cent of control: 100%
[8]
  kinase still bound, per cent of control: 28%
[9]
  kinase still bound, per cent of control: 100%
[10]
  kinase still bound, per cent of control: 35%
[11]
  kinase still bound, per cent of control: 100%
[12]
  kinase still bound, per cent of control: 100%
[13]
  kinase still bound, per cent of control: 0%
[14]
  kinase still bound, per cent of control: 0.25%
[15]
  kinase still bound, per cent of control: 43%
[16]
  kinase still bound, per cent of control: 100%
[17]
  kinase still bound, per cent of control: 100%
[18]
  kinase still bound, per cent of control: 94%
[19]
  kinase still bound, per cent of control: 0.7%
[20]
  kinase still bound, per cent of control: 17%
[21]
  kinase still bound, per cent of control: 94%
[22]
  kinase still bound, per cent of control: 73%
[23]
  kinase still bound, per cent of control: 100%
[24]
  kinase still bound, per cent of control: 100%
[25]
  kinase still bound, per cent of control: 100%
[26]
  kinase still bound, per cent of control: 100%
[27]
  kinase still bound, per cent of control: 48%
[28]
  kinase still bound, per cent of control: 100%
[29]
  kinase still bound, per cent of control: 98%
[30]
  kinase still bound, per cent of control: 100%
[31]
  kinase still bound, per cent of control: 98%
[32]
  kinase still bound, per cent of control: 100%
[33]
  kinase still bound, per cent of control: 89%
[34]
  kinase still bound, per cent of control: 30%
[35]
  kinase still bound, per cent of control: 79%
[36]
  kinase still bound, per cent of control: 100%
[37]
  kinase still bound, per cent of control: 75%
[38]
  kinase still bound, per cent of control: 100%
[39]
  kinase still bound, per cent of control: 100%
[40]
  kinase still bound, per cent of control: 100%

## Cc1cc([C@@H](C)Nc2ccccc2C(=O)O)c2nc(N3CCOCC3)cc(=O)n2c1
[1]
  kinase still bound, per cent of control: 95%
[2]
  kinase still bound, per cent of control: 98%
[3]
  kinase still bound, per cent of control: 86%
[4]
  kinase still bound, per cent of control: 100%
[5]
  kinase still bound, per cent of control: 93%
[6]
  kinase still bound, per cent of control: 69%
[7]
  kinase still bound, per cent of control: 75%
[8]
  kinase still bound, per cent of control: 100%
[9]
  kinase still bound, per cent of control: 100%
[10]
  kinase still bound, per cent of control: 91%
[11]
  kinase still bound, per cent of control: 70%
[12]
  kinase still bound, per cent of control: 88%
[13]
  kinase still bound, per cent of control: 100%
[14]
  kinase still bound, per cent of control: 96%
[15]
  kinase still bound, per cent of control: 94%
[16]
  kinase still bound, per cent of control: 100%
[17]
  kinase still bound, per cent of control: 100%
[18]
  kinase still bound, per cent of control: 90%
[19]
  kinase still bound, per cent of control: 97%
[20]
  kinase still bound, per cent of control: 89%
[21]
  kinase still bound, per cent of control: 91%
[22]
  kinase still bound, per cent of control: 82%
[23]
  kinase still bound, per cent of control: 100%
[24]
  kinase still bound, per cent of control: 98%
[25]
  kinase still bound, per cent of control: 97%
[26]
  kinase still bound, per cent of control: 71%
[27]
  kinase still bound, per cent of control: 94%
[28]
  kinase still bound, per cent of control: 84%
[29]
  kinase still bound, per cent of control: 100%
[30]
  kinase still bound, per cent of control: 100%
[31]
  kinase still bound, per cent of control: 100%
[32]
  kinase still bound, per cent of control: 88%
[33]
  kinase still bound, per cent of control: 97%
[34]
  kinase still bound, per cent of control: 100%
[35]
  kinase still bound, per cent of control: 100%
[36]
  kinase still bound, per cent of control: 82%
[37]
  kinase still bound, per cent of control: 95%
[38]
  kinase still bound, per cent of control: 95%
[39]
  kinase still bound, per cent of control: 100%
[40]
  kinase still bound, per cent of control: 100%

— the kinase profiling compilation of Christmann-Franck et al. (2016)
